What all share (experiment): Post-emergence efficacy, glasshouse
Type in all cases: in vivo
What all share (details): Application Rate 1000 g/Ha, evaluated after 13 days, 100=total damage to plant, 0=no damage to plant

One assay concerns Setaria faberi (SETFA). In a few lines:
(§1)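 Post-emergence spray on 14-day-old pot plants of the formulated compound (acetone/IF50, 50 g/l stock diluted in water with 0.25% or 1% Empicol ESC70 plus 1% ammonium sulphate). Glasshouse at 24/16° C day/night, 14 h light, 65% humidity; visual damage rated after 13 days, 0 none to 100 total.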

Assay [1] deals with Digitaria sanguinalis (DIGSA). In a few lines: as §1
Assay [2] deals with Ipomoea hederacea (IPOHE). In a few lines:
as §1

The subject of assay [3] is Chenopodium album (CHEAL). The method, boiled down: as §1
The test system of another assay is Eleusine indica (ELEIN). The method, boiled down: as §1
Assay [4] has as its system Echinochloa crus-galli (ECHCG). In a few lines: as §1
Another assay deals with Lolium perenne (LOLPE). The method, boiled down: as §1
In assay [5] the test system is Euphorbia heterophylla (EPHHL). The method, boiled down:
as §1

Assay [6] relates to Amaranthus palmeri (AMAPA). In a few lines:
as §1

With `O=P(O)(O)CCCc1c[n+](CCCP(=O)(O)O)nc2ccccc12` [Compound A82, 3-[2-(3-phosphonopropyl)cinnolin-2-ium-4-yl]propylphosphonic acid chloride], the pest or weed control at 1000 g/ha in the assay with Setaria faberi (SETFA) (Setaria faberi, post-emergence, 312 h, read-out: Control of weed species after post-emergence application, SETFA) is 0%; in [1] (Digitaria sanguinalis, post-emergence, 312 h, read-out: Control of weed species after post-emergence application, DIGSA), 10%; in assay [2] (Ipomoea hederacea, post-emergence, 312 h, read-out: Control of weed species after post-emergence application, IPOHE), 10%; in assay [3] (Chenopodium album, post-emergence, 312 h, read-out: Control of weed species after post-emergence application, CHEAL) it was 0%; with Eleusine indica (ELEIN) (Eleusine indica, post-emergence, 312 h, read-out: Control of weed species after post-emergence application, ELEIN), 10%; in assay [4] (Echinochloa crus-galli, post-emergence, 312 h, read-out: Control of weed species after post-emergence application, ECHCG), 20%. Moreover, the pest or weed control at 1000 g/ha in the assay on Lolium perenne (LOLPE) (Lolium perenne, post-emergence, 312 h, read-out: Control of weed species after post-emergence application, LOLPE) was determined as 10%; in [5] (Euphorbia heterophylla, post-emergence, 312 h, read-out: Control of weed species after post-emergence application, EPHHL), 20%; in assay [6] (Amaranthus palmeri, post-emergence, 312 h, read-out: Control of weed species after post-emergence application, AMAPA), 30%.
As to “ethoxy-[(2-methylcinnolin-2-ium-4-yl)methyl]phosphinic acid [Compound A51]”, the “Control of weed species after post-emergence application, SETFA” value in the assay with Setaria faberi (SETFA) worked out at 90. Moreover, in assay [1], the “Control of weed species after post-emergence application, DIGSA” value is recorded as 90. The “Control of weed species after post-emergence application, IPOHE” value in assay [2] stood at 60. The “Control of weed species after post-emergence application, CHEAL” value in assay [3] was found to be 60. In addition, in the assay with Eleusine indica (ELEIN), the “Control of weed species after post-emergence application, ELEIN” value is 80. Further, the “Control of weed species after post-emergence application, ECHCG” value in assay [4] is listed as 70. Also, the “Control of weed species after post-emergence application, LOLPE” value with Lolium perenne (LOLPE) came out at 20. In addition, in assay [5], the “Control of weed species after post-emergence application, EPHHL” value amounted to 90. For the same compound, the “Control of weed species after post-emergence application, AMAPA” value in assay [6] was 90.

The record behind these values is patent US20220132847A1, “CINNOLINIUM COMPOUNDS FOR USE IN A METHOD OF CONTROLLING UNWANTED PLANT GROWTH” (SYNGENTA CROP PROTECTION AG, priority 2019, published 2022).
